According to US7108863B2, “Liposome composition for improved intracellular delivery of a therapeutic agent” (Alza Corporation, priority 2001, dated 2006):

What was measured:
[1] = system: CD 19± human B-lymphoma (Namalwa) cells; test: Survival of SCID mice implanted i.v. with Namalwa cells; type: in vivo
Description: In another study performed in support of the invention, mice were treated with targeted, pH-sensitive liposomes having releasable PEG chains. Entrapped in the liposomes was the therapeutic agent doxorubicin (DXR). As described in Example 9, the mice were treated with a single dose of 3 mg DXR/kg in free form or entrapped in liposomes. The liposome formulations are summarized in Table 2 and detailed in Example 8.
Namalwa cells were passaged i.p. in CB-17/ICR Tac SCID mice (Charles River Laboratories, Quebec, Canada) to develop a more virulent strain with reproducible tumor take (Lopes de Menezes et al., Cancer Res., 58:3320 (1998)). Namalwa cells were harvested in sterile PBS and implanted into SCID mice. Cell viability was assessed by dye exclusion using Trypan Blue dye before and after the implantation process.
SCID mice (5 mice/group) (Charles River Laboratories), 6–8 weeks of age, were implanted with Namalwa cells i.v. (5×10^6) and treated i.v. at 24 h after implantation with a single dose of 3 mg doxorubicin/kg as either free doxorubicin, doxorubicin-SIL[anti-CD19] or targeted DXR-loaded DOPE/CHEMS formulations stabilized with either mPEG-DSPE or mPEG-S-S-DSPE. The treatment regimens were as follows:
All treatment groups received 3 mg doxorubicin/kg. Mice were monitored routinely for weight loss, and euthanized as they became moribund; survival times were recorded. […]

Namalwa cells = test: Nuclear accumulation of doxorubicin in Namalwa cells; type: cell-based, human; settings: 8 μM DXR, 0-12 hours
Description: Nuclear accumulation of doxorubicin was determined as described in Example 7. Briefly, Namalwa cells, maintained under logarithmic growth conditions were treated with doxorubicin-entrapped liposome formulations at a doxorubicin concentration of 8 μM. At various time points (0, 2, 4, 8, 12 hours), an aliquot of the treated cells was ruptured to recover the nuclei. The DNA in the nuclei were enzymatically digested and doxorubicin fluorescence was measured.
Nuclear accumulation of doxorubicin was determined according to the method of Kirchmeier et al. (J. Liposome Res., 11:15 (2001)). Briefly, 4.5×10^8/500 ml Namalwa cells, maintained under logarithmic growth conditions in RPMI 1640 supplemented with 10% FBS, were treated with either free DXR or various liposomal DXR formulations at a DXR concentration of 8 μM.
At various time points (0, 2, 4, 8, 12 hours), 100 ml of cells was pelleted by centrifugation at 1000 rpm for 10 min and washed with 20 ml of TEA buffer. […] After removal of the supernatant, the pellet was diluted to 1 ml with TEA buffer, then vortexed and sonicated until the nuclei were evenly dispersed, as determined by visual inspection.
For each time point, three aliquots of the nuclear fractions (0.2 ml each) were placed in 1.3 ml TEA. […] Following digestion at 22° C. for 2 hours, the doxorubicin fluorescence was recorded (excitation at 480 nm and emission at 595 nm). […]

CD19^+ Namalwa cells = test: In vitro cytotoxicity, MTT proliferation assay on Namalwa cells; type: cell-based; settings: Homo sapiens, 48 hours, mean ± SD, read-out: IC50 (μM DXR)
Description: In vitro cytotoxicity of free DXR and various liposomal formulations was evaluated using Namalwa cells with an in vitro proliferation assay as described in Example 6. In addition to the targeted, pH-sensitive liposomes, conventional, non-pH sensitive sterically stabilized liposome (DXR-SL) and doxorubicin in free form were also tested. Each of the test formulations was incubated with the Namalwa cells under controlled conditions for 48 hours. At the end of the incubation time, cytotoxicity was expressed as the inhibitory concentration, that is the concentration required for a 50% inhibition of cell growth (IC50).
A comparison of the in vitro cytotoxicity of free doxorubicin and various liposomal formulations (Table 1) was performed on Namalwa cells with an in vitro proliferation assay using a tetrazolium dye (MTT -3-(4,5-dimethylthiazol-2-yl)-2,5 diphenyltetrazolim bromide; Mosmann, J. J. Immunol Methods, 65:55 (1983)), as described in Lopes de Menezes et al, Cancer Res., 58:3320 (1998).
Briefly, 5×10^5 Namalwa cells were plated in 96-well plates and incubated with either free DXR or various formulations of liposome-encapsulated doxorubicin with or without anti-CD19 mAb. […] At the end of the incubation period, tetrazolium dye was added, and the plates were read on a Titertek Multiskan Plus (Flow Laboratories, Inc. Mississauga, Ontario, Canada) at dual wavelengths of 570 and 650 nm. […]

**Q.** What does the source list for `COc1cccc2c1C(=O)c1c(O)c3c(c(O)c1C2=O)C[C@@](O)(C(=O)CO)C[C@@H]3O[C@H]1C[C@H](N)[C@H](O)[C@H](C)O1` [Free DXR, doxorubicin]?
**A.** Increased Life Span (% ILS) ([1]; relative to mean survival time of control mice, 3 mg DXR/kg i.v.): 9.5%; Mean Survival Time (MST ± S.D. (days)) ([1]; single i.v. dose 3 mg DXR/kg 24 h after i.v. implantation, 5 mice/group): 23.0 ± 1.4 days; nuclear accumulation of doxorubicin (in words) (Namalwa cells): fastest rate; IC50 (CD19^+ Namalwa cells): 0.8 ± 0.7 µM
